Ends that are not written are not given here.
Test system: intracellular calcium ion concentration
Experiment: activity of increasing intracellular calcium ion concentration (method of Example 3 of WO 99/33976)
Assay type: cell-based
Details: compared with a standard product isolated from human placenta extract

Substance: human KiSS-1 peptide: Recombinant peptide of SEQ ID NO: 1 with C-terminal amide, cleaved from KiSS-1 peptide-CS23 fusion protein expressed in E. coli (GTSLSPPPESSGSRQQPGLSAPHSRQIPAPQGAVLVQREKDLPNYNWNSFGLRF-NH2)
- activity of increasing intracellular calcium ion concentration: equivalent to that of a standard product isolated from human placenta extract
